Measurements: patent publication USRE49850E1, “N-(pyridin-2-yl)-4-(thiazol-5-yl)pyrimidin-2-amine derivatives as therapeutic compounds” (AUCENTRA THERAPEUTICS PTY LTD, priority 2015, dated 2024)
Where two headings read alike, the source gives them in different places.

Tests used:
CDK1B = CDK1B (Homo sapiens, UniProt P06493); experiment: Kinase assay CDK1B (radiometric profiling service); type: biochemical; details: for Ki: apparent Ki calculated from Km (ATP) and IC50, read-out: CDK inhibition Ki CDK1B
Sequence of CDK1B (P06493 whole entry): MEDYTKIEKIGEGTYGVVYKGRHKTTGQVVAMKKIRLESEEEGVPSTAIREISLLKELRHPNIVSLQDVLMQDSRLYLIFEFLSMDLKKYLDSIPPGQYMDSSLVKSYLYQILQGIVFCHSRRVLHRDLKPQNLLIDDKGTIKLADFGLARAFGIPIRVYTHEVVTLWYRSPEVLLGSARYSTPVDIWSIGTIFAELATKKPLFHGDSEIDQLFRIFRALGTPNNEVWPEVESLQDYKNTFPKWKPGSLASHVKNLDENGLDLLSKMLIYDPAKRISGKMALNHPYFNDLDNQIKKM
Sequence of CDK1B (P14635 whole entry partner): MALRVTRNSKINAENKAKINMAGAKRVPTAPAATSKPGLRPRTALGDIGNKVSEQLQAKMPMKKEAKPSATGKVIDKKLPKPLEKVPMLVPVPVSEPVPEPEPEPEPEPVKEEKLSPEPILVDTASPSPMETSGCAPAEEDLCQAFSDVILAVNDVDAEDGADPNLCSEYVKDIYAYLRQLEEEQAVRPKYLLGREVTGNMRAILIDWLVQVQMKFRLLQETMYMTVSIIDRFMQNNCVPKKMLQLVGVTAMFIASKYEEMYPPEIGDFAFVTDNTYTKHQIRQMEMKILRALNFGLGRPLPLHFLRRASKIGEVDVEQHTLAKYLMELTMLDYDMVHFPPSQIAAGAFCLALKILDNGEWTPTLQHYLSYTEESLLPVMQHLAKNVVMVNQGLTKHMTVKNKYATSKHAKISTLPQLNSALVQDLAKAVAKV
Method in brief: (§1)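 Radiometric inhibition data for CDKs came from Eurofins or Reaction Biology profiling services; CDK4/D1 was also run in-house by ADP-Glo in […] pH 7.5, 20 mM MgCl2, 0.4 mM DTT, 0.1 mg/ml BSA with RB-CTF substrate, 40 min at 37 °C after ATP start. Ten-point 1:3 dilutions (10 μM–0.5 nM); four-parameter IC50, Ki from IC50 and ATP Km.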

CDK 2A = CDK 2A (Homo sapiens, UniProt P24941); experiment: Kinase assay CDK2A (radiometric profiling service); type: biochemical; details: for Ki: apparent Ki calculated from Km (ATP) and IC50, read-out: CDK inhibition Ki CDK 2A
Method in brief: as §1

CDK4D1 = molecular target: T1, CDK4D1 (Homo sapiens, UniProt P11802); experiment: Kinase assay CDK4/D1 (radiometric or ADP Glo); type: biochemical; details: apparent Ki calculated from Km (ATP) and IC50; read-out: CDK inhibition Ki CDK4D1
T1 construct: purchased Eurofins Pharma Discovery or Reaction Biology Corporation (service)
T1 sequence (P11802 whole entry): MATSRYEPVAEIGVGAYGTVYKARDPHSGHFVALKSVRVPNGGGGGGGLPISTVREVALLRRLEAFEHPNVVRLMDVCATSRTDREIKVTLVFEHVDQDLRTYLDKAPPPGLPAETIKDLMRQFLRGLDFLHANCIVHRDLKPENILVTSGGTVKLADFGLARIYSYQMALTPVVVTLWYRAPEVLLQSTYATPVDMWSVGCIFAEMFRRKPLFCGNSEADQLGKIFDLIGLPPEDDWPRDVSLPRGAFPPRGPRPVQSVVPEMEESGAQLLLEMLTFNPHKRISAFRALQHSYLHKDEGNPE
T1 sequence (P24385 whole entry partner): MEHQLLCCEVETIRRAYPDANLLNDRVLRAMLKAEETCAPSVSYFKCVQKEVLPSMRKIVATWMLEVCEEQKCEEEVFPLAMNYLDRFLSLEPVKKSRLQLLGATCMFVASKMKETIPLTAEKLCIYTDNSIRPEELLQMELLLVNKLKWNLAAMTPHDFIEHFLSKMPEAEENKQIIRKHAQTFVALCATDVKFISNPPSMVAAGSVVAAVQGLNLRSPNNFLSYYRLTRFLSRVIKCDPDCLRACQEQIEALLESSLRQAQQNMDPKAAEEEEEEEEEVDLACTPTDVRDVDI
Method in brief: as §1

CDK6D3 = molecular target: T2, CDK6D3 (Homo sapiens, UniProt Q00534); experiment: Kinase assay CDK6/D3 (radiometric or ADP Glo); type: biochemical; details: apparent Ki calculated from Km (ATP) and IC50; read-out: CDK inhibition Ki CDK6D3
T2 construct: purchased Eurofins Pharma Discovery or Reaction Biology Corporation (service)
T2 sequence (Q00534 whole entry): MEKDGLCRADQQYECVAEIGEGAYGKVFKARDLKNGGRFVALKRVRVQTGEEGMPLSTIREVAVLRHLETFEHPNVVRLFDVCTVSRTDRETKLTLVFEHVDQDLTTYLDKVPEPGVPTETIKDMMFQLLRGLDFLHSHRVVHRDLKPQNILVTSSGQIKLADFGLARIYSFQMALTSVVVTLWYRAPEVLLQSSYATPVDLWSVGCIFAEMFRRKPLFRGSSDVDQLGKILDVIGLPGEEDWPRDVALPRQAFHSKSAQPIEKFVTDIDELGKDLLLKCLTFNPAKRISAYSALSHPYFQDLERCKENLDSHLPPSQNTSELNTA
T2 sequence (P30281 whole entry partner): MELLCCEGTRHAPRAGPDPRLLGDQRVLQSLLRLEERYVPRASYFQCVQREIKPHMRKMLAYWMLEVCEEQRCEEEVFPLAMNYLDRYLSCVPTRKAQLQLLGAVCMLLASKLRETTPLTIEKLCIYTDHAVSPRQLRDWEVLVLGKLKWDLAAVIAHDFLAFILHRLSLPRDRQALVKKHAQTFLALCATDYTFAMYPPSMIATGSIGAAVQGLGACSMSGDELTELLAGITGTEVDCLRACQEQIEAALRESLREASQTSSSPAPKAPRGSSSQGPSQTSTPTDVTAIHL
Method in brief: as §1

CDK7H = CDK7H (Homo sapiens, UniProt P50613); experiment: Kinase assay CDK7H (radiometric profiling service); type: biochemical; details: for Ki: apparent Ki calculated from Km (ATP) and IC50, read-out: CDK inhibition Ki CDK7H
Sequence of CDK7H (P50613 whole entry): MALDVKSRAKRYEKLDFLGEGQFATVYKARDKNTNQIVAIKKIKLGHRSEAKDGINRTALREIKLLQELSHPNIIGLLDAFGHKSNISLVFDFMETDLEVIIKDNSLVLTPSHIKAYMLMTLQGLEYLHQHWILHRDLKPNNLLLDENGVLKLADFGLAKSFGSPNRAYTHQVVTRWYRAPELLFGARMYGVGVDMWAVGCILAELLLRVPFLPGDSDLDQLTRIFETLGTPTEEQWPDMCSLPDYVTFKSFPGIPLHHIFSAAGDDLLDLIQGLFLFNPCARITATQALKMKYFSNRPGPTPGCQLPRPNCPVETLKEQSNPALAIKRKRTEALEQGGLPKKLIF
Sequence of CDK7H (P51946 whole entry partner): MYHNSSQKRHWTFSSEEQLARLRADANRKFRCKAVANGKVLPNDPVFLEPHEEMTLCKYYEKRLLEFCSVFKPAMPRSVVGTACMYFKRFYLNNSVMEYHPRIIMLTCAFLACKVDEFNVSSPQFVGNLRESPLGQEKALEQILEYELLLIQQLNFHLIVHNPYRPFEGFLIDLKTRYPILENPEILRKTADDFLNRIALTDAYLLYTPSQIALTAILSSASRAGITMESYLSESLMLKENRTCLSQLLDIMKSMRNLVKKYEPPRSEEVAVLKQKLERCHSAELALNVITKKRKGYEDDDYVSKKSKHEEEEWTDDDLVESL
Sequence of CDK7H (P51948 whole entry partner): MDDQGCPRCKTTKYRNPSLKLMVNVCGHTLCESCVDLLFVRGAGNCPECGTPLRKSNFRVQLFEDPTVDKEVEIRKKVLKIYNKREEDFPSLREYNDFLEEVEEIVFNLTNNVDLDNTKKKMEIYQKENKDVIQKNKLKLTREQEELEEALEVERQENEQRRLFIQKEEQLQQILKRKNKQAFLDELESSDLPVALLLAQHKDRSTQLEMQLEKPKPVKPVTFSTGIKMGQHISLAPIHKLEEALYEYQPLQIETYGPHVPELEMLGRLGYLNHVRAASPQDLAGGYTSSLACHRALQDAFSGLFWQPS
Method in brief: as §1

CDK9T1 = molecular target: T3, CDK9T1 (Homo sapiens, UniProt P50750); experiment: Kinase assay CDK9/T1 (radiometric or ADP Glo); type: biochemical; details: apparent Ki calculated from Km (ATP) and IC50; read-out: CDK inhibition Ki CDK9T1
T3 construct: purchased Eurofins Pharma Discovery or Reaction Biology Corporation (service)
T3 sequence (P50750 whole entry): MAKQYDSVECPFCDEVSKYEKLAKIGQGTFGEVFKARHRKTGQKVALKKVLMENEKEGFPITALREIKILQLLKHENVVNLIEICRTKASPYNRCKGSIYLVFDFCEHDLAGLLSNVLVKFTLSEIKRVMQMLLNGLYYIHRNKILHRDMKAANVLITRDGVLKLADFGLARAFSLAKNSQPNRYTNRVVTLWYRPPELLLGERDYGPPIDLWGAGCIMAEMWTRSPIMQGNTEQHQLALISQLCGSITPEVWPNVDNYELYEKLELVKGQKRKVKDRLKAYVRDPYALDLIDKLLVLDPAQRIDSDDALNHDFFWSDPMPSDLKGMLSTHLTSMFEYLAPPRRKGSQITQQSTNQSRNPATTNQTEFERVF
T3 sequence (O60563 whole entry partner): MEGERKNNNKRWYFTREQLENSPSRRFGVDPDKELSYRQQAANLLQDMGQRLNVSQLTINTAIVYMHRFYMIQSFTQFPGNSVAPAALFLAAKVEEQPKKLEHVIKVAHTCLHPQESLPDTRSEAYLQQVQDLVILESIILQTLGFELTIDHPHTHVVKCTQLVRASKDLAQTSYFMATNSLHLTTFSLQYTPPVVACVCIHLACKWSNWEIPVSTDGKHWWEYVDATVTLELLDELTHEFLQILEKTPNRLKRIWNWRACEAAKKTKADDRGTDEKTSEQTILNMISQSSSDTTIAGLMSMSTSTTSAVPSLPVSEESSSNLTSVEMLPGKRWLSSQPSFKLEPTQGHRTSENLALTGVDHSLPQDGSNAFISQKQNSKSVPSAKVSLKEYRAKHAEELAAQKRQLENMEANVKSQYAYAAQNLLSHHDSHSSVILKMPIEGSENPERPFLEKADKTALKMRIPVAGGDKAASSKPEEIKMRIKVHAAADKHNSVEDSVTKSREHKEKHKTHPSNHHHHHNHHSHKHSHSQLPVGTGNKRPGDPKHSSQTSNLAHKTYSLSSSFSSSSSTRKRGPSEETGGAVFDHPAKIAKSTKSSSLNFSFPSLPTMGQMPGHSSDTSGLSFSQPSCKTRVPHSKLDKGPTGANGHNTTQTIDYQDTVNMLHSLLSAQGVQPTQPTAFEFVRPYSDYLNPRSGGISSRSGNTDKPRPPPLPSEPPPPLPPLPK
Method in brief: as §1

MV4-11 = experiment: Cell viability assay (resazurin, leukemia cell line) MV4-11; type: cell-based, human
Description: (§2) Compounds from Example 1 were subjected to a standard MTT (3-(4,5-dimethylthiazol-2-yl)-2,5-diphenyltetrazolium bromide) and resazurin assays on solid tumour cell lines and leukemia cell lines, respectively, as previously reported (Wang S et al., J Med Chem 47:1662-1675, 2004 and Diab S. et al. CheMedChem 9:962-972, 2014).

MDA-MB-453 = experiment: Cell viability assay (MTT, solid tumour cell line) MDA-MB-453; type: cell-based, human
Description: as §2

A2780 = experiment: Cell viability assay, ovarian A2780; type: cell-based; details: Homo sapiens, read-out: Antiproliferative activity GI50 A2780
Description: as §2

D458 = experiment: Cell viability assay, medulloblastoma D458; type: cell-based; details: Homo sapiens, 72 h, read-out: Antiproliferative activity GI50 D458
Description: as §2

D283 = experiment: Cell viability assay, medulloblastoma D283; type: cell-based; details: Homo sapiens, read-out: Antiproliferative activity GI50 D283
Description: as §2

[1] = Homo sapiens, MV4-11, 72 h; read-out: Anti-proliferative activity GI50 MV4-11
[2] = Homo sapiens, MDA-MB-453, 72 h; read-out: Anti-proliferative activity GI50 MDA-MB-453

| Ki (CDK1B) [nM] | Ki (CDK 2A) [nM] | Ki (CDK4D1) [nM] | Ki (CDK6D3) [nM] | Ki (CDK7H) [nM] | Ki (CDK9T1) [nM] | GI50 (MV4-11; [1]) [nM] | GI50 (MDA-MB-453; [2]) [nM] | GI50 (A2780; A2780, 72 h, Ovarian) [nM] | GI50 (D458; Medulloblastoma) [nM] | GI50 (D283; D283, 72 h, Medulloblastoma) [nM] | remaining activity at 10 µM (CDK1B; compound at 10 μM, read-out: % remaining enzymatic activity at 10 μM CDK1B) [%] | remaining activity at 10 µM (CDK 2A; compound at 10 μM, read-out: % remaining enzymatic activity at 10 μM CDK 2A) [%] | remaining activity at 10 µM (CDK7H; compound at 10 μM, read-out: % remaining enzymatic activity at 10 μM CDK7H) [%] | Structure (SMILES) | GI50 (MV4-11; Homo sapiens, MV4-11, 72 h, read-out: Anti-proliferative activity GI50 MV4-11) [nM] | GI50 (MDA-MB-453; Homo sapiens, MDA-MB-453, 72 h, read-out: Anti-proliferative activity GI50 MDA-MB-453) [nM] | GI50 (A2780; A2780, 72 h) [nM] | GI50 (D458) [nM] | GI50 (D283; D283, 72 h) [nM] |
| --- | --- | --- | --- | --- | --- | --- | --- | --- | --- | --- | --- | --- | --- | --- | --- | --- | --- | --- | --- |
| > 5000 | 365 | 2 | 10 | > 5000 | 1910 | 11 ± 4 | 381 ± 96 | 94 ± 1 | 645 ± 97 | 489 ± 22 |  |  |  | CNc1nc(C)c(-c2nc(Nc3ccc(N4CCN(C)CC4)cn3)ncc2F)s1 [Compound 31, 5-(5-fluoro-2-((5-(4-methylpiperazin-1-yl)pyridin-2-yl)amino)pyrimidin-4-yl)-N,4-dimethylthiazol-2-amine] |  |  |  |  |  |
| 580 | 76 | 37 | 297 | > 5000 | > 5000 | 425 ± 73 | 660 ± 92 |  |  |  |  |  |  | CNc1nc(C)c(-c2nc(Nc3ccc(N4CCN(S(C)(=O)=O)CC4)cn3)ncc2F)s1 [Compound 52, 5-(5-fluoro-2-((5-(4-(methylsulfonyl)piperazin-1-yl)pyridin-2-yl)amino)pyrimidin-4-yl)-N,4-dimethylthiazol-2-amine] |  |  |  |  |  |
| 2370 | 206 | 3 | 32 | > 5000 | 3040 | 80 ± 13 | 362 ± 3 |  |  |  |  |  |  | CNc1nc(C)c(-c2nc(Nc3ccc(N4CCCNCC4)cn3)ncc2F)s1 [Compound 53, 5-(2-((5-(1,4-diazepan-1-yl)pyridin-2-yl)amino)-5-fluoropyrimidin-4-yl)-N,4-dimethylthiazol-2-amine] |  |  |  |  |  |
| > 5000 | 127 | 41 | 82 | > 5000 | > 5000 | 32 ± 3 | 115 ± 24 |  |  |  |  |  |  | Cc1nc(NC(C)C)sc1-c1ccnc(Nc2ccc(N3CCOCC3)cn2)n1 [Compound 58, N-isopropyl-4-methyl-5-(2-((5-morpholinopyridin-2-yl)amino)pyrimidin-4-yl)thiazol-2-amine] |  |  |  |  |  |
|  |  |  |  |  |  | 73 ± 28 | 202 ± 30 | 56 ± 7 | 457 ± 171 | 77 ± 6 |  |  |  | Cc1nc(NC2CCCC2)sc1-c1nc(Nc2ccc(N3CCN(C)CC3)cn2)ncc1F [Compound 64] |  |  |  |  |  |
| > 5000 | 228 | 34 | 23 | > 5000 | 4990 | 15 ± 2 | 8110 ± 1150 |  |  |  |  |  |  | CC(=O)N1CCN(c2ccc(Nc3ncc(F)c(-c4sc(NC5CCCC5)nc4C)n3)nc2)CC1 [Compound 69, 1-(4-(6-((4-(2-(cyclopentylamino)-4-methylthiazol-5-yl)-5-fluoropyrimidin-2-yl)amino)pyridin-3-yl)piperazin-1-yl)ethan-1-one] |  |  |  |  |  |
| > 5000 | 154 | 8 | 11 | > 5000 | > 5000 | 69 ± 13 | 415 ± 103 |  |  |  |  |  |  | FC(F)(F)c1nc(NC2CCCC2)sc1-c1ccnc(Nc2ccc(N3CCOCC3)cn2)n1 [Compound 73, N-cyclopentyl-5-(2-((5-morpholinopyridin-2-yl)amino)pyrimidin-4-yl)-4-(trifluoromethyl)thiazol-2-amine] |  |  |  |  |  |
| > 5000 | > 5000 | 70 | 257 | > 5000 | > 5000 | 191 ± 29 | 7040 ± 710 |  |  |  |  |  |  | Cc1nc(NC2CCCC2)sc1-c1ccnc(Nc2ccc(N3CCCCC3)cn2)n1 [Compound 75, N-cyclopentyl-4-methyl-5-(2-((5-(piperidin-1-yl)pyridin-2-yl)amino)pyrimidin-4-yl)thiazol-2-amine] |  |  |  |  |  |
| > 5000 | 1150 | 1 | 31 | > 5000 | 1090 | 454 ± 40 | 356 ± 24 |  |  |  |  |  |  | Cc1nc(NC2CCCC2)sc1-c1nc(Nc2ccc(N3CCC(N(C)C)CC3)cn2)ncc1F [Compound 80, N-cyclopentyl-5-(2-((5-(4-(dimethylamino)piperidin-1-yl)pyridin-2-yl)amino)-5-fluoropyrimidin-4-yl)-4-methylthiazol-2-amine] |  |  |  |  |  |
| > 5000 | 348 | 39 | 101 | > 5000 | > 5000 | 2630 ± 582 | 2810 ± 89 |  |  |  |  |  |  | Cc1nc(NC2CCCC2)sc1-c1nc(Nc2ccc(N3CCN(S(C)(=O)=O)CC3)cn2)ncc1F [Compound 82, N-cyclopentyl-5-(5-fluoro-2-((5-(4-(methylsulfonyl)piperazin-1-yl)pyridin-2-yl)amino)pyrimidin-4-yl)-4-methylthiazol-2-amine] |  |  |  |  |  |
| 3170 | 121 | 10 | 31 | > 5000 | > 5000 | 328 ± 7 | 6860 ± 798 |  |  |  |  |  |  | CC(=O)N1CCN(c2ccc(Nc3nccc(-c4sc(N(C)C5CCCC5)nc4C)n3)nc2)CC1 [Compound 87, 1-(4-(6-((4-(2-(cyclopentyl(methyl)amino)-4-methylthiazol-5-yl)pyrimidin-2-yl)amino)pyridin-3-yl)piperazin-1-yl)ethan-1-one] |  |  |  |  |  |
| > 5000 | > 5000 | 19 | 485 | > 5000 | > 5000 | 508 ± 42 | 494 ± 81 |  |  |  |  |  |  | Cc1nc(Nc2ccccc2)sc1-c1ccnc(Nc2ccc(N3CCN(C)CC3)cn2)n1 [Compound 90, 4-methyl-5-(2-((5-(4-methylpiperazin-1-yl)pyridin-2-yl)amino)pyrimidin-4-yl)-N-phenylthiazol-2-amine] |  |  |  |  |  |
| > 5000 | 1040 | 26 | 100 | > 5000 | 2000 | 421 ± 44 | 150 ± 29 |  |  |  |  |  |  | Cc1nc(N(C)c2ccccc2)sc1-c1ccnc(Nc2ccc(N3CCN(C)CC3)cn2)n1 [Compound 91, N,4-dimethyl-5-(2-((5-(4-methylpiperazin-1-yl)pyridin-2-yl)amino)pyrimidin-4-yl)-N-phenylthiazol-2-amine] |  |  |  |  |  |
|  |  | 255 | 915 |  | 840 | 3720 ± 357 | > 10000 |  |  |  | 71 | 77 | 52 | Cc1c(-c2ccnc(Nc3ccc(N4CCN(C)CC4)cn3)n2)sc(=O)n1C [Compound 93, 3,4-dimethyl-5-(2-((5-(4-methylpiperazin-1-yl)pyridin-2-yl)amino)pyrimidin-4-yl)thiazol-2(3H)-one] |  |  |  |  |  |
| 3660 | 1340 | 33 | 320 | 1260 | 1580 | 1830 ± 194 | > 10000 |  |  |  |  |  |  | CCn1c(C)c(-c2ccnc(Nc3ccc(N4CCN(C)CC4)cn3)n2)sc1=O [Compound 94, 3-ethyl-4-methyl-5-(2-((5-(4-methylpiperazin-1-yl)pyridin-2-yl)amino)pyrimidin-4-yl)thiazol-2(3H)-one] |  |  |  |  |  |

| Structure (SMILES) | Ki (CDK1B) [nM] | Ki (CDK 2A) [nM] | Ki (CDK4D1) [nM] | Ki (CDK6D3) [nM] | Ki (CDK7H) [nM] | Ki (CDK9T1) [nM] | GI50 (MV4-11; [1]) [nM] | GI50 (MDA-MB-453; [2]) [nM] | GI50 (A2780; A2780, 72 h, Ovarian) [nM] | GI50 (D458; Medulloblastoma) [nM] | GI50 (D283; D283, 72 h, Medulloblastoma) [nM] | remaining activity at 10 µM (CDK1B; compound at 10 μM, read-out: % remaining enzymatic activity at 10 μM CDK1B) [%] | remaining activity at 10 µM (CDK 2A; compound at 10 μM, read-out: % remaining enzymatic activity at 10 μM CDK 2A) [%] | remaining activity at 10 µM (CDK7H; compound at 10 μM, read-out: % remaining enzymatic activity at 10 μM CDK7H) [%] | GI50 (MV4-11; Homo sapiens, MV4-11, 72 h, read-out: Anti-proliferative activity GI50 MV4-11) [nM] | GI50 (MDA-MB-453; Homo sapiens, MDA-MB-453, 72 h, read-out: Anti-proliferative activity GI50 MDA-MB-453) [nM] | GI50 (A2780; A2780, 72 h) [nM] | GI50 (D458) [nM] | GI50 (D283; D283, 72 h) [nM] |
| --- | --- | --- | --- | --- | --- | --- | --- | --- | --- | --- | --- | --- | --- | --- | --- | --- | --- | --- | --- |
| CNc1nc(C)c(-c2ccnc(Nc3ccc(N4CCN(C)CC4)cn3)n2)s1 [Compound 29, N,4-dimethyl-5-(2-((5-(4-methylpiperazin-1-yl)pyridin-2-yl)amino)pyrimidin-4-yl)thiazol-2-amine] | 3210 | 650 | 5 | 50 | > 5000 | 1820 |  |  |  |  |  |  |  |  | 297 ± 61 | 544 ± 78 | 282 ± 58 | 326 ± 29 | 335 ± 97 |
